Assay [1] relates to human multiple myeloma cell line, RPMI8226. Description: Trypan blue cell viability and viable cell count, RPMI8226. In kind it is cell-based. The following applies: vardenafil 5 μM, EGCG 5 μM, 96 hours. As to the method: Enhancement of the activity of EGCG on multiple myeloma cells by vardenafil was investigated. A human multiple myeloma cell line, RPMI8226, was seeded in a 24-well plate at 5×10^4 cells/mL, and vardenafil was added thereto at a final concentration of 5 μM. After 3 hours, EGCG was added thereto at a final concentration of 5 μM. After 96 hours, cell viability (A) and the number (B) of viable cells were measured by trypan blue staining. The value of a control group of cells not treated with EGCG and vardenafil was defined as 100%. The results are shown in FIG. 8 (n=3, Tukey's test, *: P<0.05, ***: P<0.001).

The test system of assay [2] is human multiple myeloma cell line, U266. The experiment in a line: Involvement of 67LR (anti-67LR antibody MLuc5) in cell-killing and cytostatic activity, U266. In kind it is cell-based. The following applies: U266, 96-well; vardenafil 5 μM, EGCG 5 μM; 96 hours; without anti-67LR antibody (isotype control mouse IgM). As to the method: (§1) A trypan blue staining solution was prepared by suspending trypan blue in PBS at a concentration of 1% and was used in investigation of the anti-cancer activity of a combination of EGCG and vardenafil by trypan blue assay. The PBS used was prepared by dissolving 8.0 g of NaCl, 0.2 g of KCl, 1.15 g of Na2HPO4, and 0.2 g of KH2PO4 in 1 L of ultrapure water, followed by autoclave sterilization.
(§2) A human multiple myeloma cell line, U266, and a human acute myeloid leukemia cell line, HL60, adjusted to be 5×10^4 cells/mL (U266) and 1×10^4 cells/mL (HL60), respectively, in an RPMI 1640 medium supplemented with 1% FCS were seeded in a 96-well plate (Falcon Co., Ltd.). Vardenafil was added thereto at a final concentration of 5 μM. Immediately after the addition, an anti-67LR monoclonal antibody, MLuc5 (Abcam PLC), was added thereto at a final concentration of 20 μg/mL. In the group of adding an isotype control antibody, mouse IgM (Cosmo Bio Co., Ltd., Tokyo) was added at a final concentration of 20 μg/mL. […]
(§3) The plate was returned to the incubator immediately after the addition of EGCG, followed by culturing for 96 hours. […] After 10 minutes, the number of the cells was counted with a hemocytometer. Unstained cells were deemed as viable cells, and the cell viability was determined as a ratio of the number of unstained cells in trypan blue staining to the total number of cells. […]

A further assay relates to TLR 4. Description: TLR4 expression in RAW 264.7 by Western blotting. In kind it is cell-based, mouse. The settings on record: vardenafil 5 μM, EGCG 10 μM added after 3 hours, 24 hours, untreated = 100. As to the method:
(§4) A mouse macrophage cell line, RAW 264.7, was seeded in a 5-mL dish at 1×10^5 cells/mL and was pre-cultured in a DMEM medium supplemented with 1% FCS for 24 hours. Subsequently, vardenafil was added thereto at a concentration of 5 μM. After 3 hours, EGCG was added thereto at a concentration of 0 μM or 10 μM. After 24 hours, the cells were collected, and the expressions of Toll-like receptor (TLR) 2 and TLR 4 were measured by Western blotting.
For orientation: Immunoblotting shows a protein as a band on a membrane.

Assay [3] relates to human acute myeloid leukemia cell line, HL60. The experiment in a line: Involvement of 67LR (anti-67LR antibody MLuc5) in cell-killing and cytostatic activity, HL60. Format: cell-based. The settings on record: HL60, 96-well; vardenafil 5 μM, EGCG 5 μM; 96 hours; without anti-67LR antibody (isotype control mouse IgM). As to the method: as §1, §2, §3
The subject of assay [4] is Toll-like receptor (TLR) 2. The experiment in a line: TLR2 expression in RAW 264.7 by Western blotting. Format: cell-based, mouse. The following applies: vardenafil 5 μM, EGCG 10 μM added after 3 hours, 24 hours, untreated = 100. As to the method: as §4

On to (−)-epigallocatechin-3-O-gallate [EGCG], for which the “cell viability (cell-killing activity)” value in assay [1], in assay [2] and in assay [3] was “any cytotoxicity was not observed” each time. Besides, in the assay with TLR 4, the “TLR4 expression level(%)” value is 57%. Moreover, the “TLR2 expression level(%)” value in assay [4] is on record as 90%.

The record behind these values is patent publication US20160000750A1, “COMBINATION OF EGCG OR METHYLATED EGCG AND A PDE INHIBITOR” (KYUSHU UNIVERSITY, NATIONAL UNIVERSITY CORPORATION, priority 2010, published 2016).
